Drawing on patent publication US8809341B2, “2,4-pyrimidinediamine compounds and uses as anti-proliferative agents” (Rigel Pharmaceuticals, Inc., priority 2003, dated 2014), this text covers IC50 for 28 compounds.

Holding throughout (type): cell-based
One test concerns A549 cells. Put plainly: in vitro antiproliferation assay, A549 (lung). A digest of the protocol:
(§1)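 IC50 values came from standard antiproliferation testing in cultured tumour cells; the A549 and H1299 lines are of lung origin.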

The subject of a further test is H1299 cells. Briefly: in vitro antiproliferation assay, H1299 (lung). An outline of the steps:
as §1

The test system of a further test is ACHN. Put plainly: in vitro antiproliferation assay, ACHN (kidney/p53 wt). As for the experimental part:
(§2) The IC50 values of various compounds against a various different tumor cell lines were determined using standard in vitro antiproliferation assays. The tumor cell lines tested were as follows: A549 (lung); H1299 (lung), ACHN (kidney/p53 wt), CAKI (renal cell carcinoma), NCI-H460 (lung); HCT116 (colon/p53w0; HELA (cervix/p53 wt), HUH7 (liver/p53 wt), HUVEC (primary endothelial), LNCAP (prostate), HT-29 (colon); MCF-7 (breast); MCF-7 (breast/ER positive), MDA MB435S (breast); MDA MB231 (breast/ER negative), DU145 (prostate); BxPC-3 (pancreatic); SKOV-3 (ovarian); HepG2 (hepatic), NDHF primary normal human dermal fibroblast), SKMEL28 (breast/p53mut), SKMEL5 (breast/p53 wt), U20S (bone) and PC3 (prostate). […] A blank indicates the specified compound was not tested against the specified cell line.
(§3) Many of the compounds were tested against other cell lines. Their activity is reported in TABLE 15, below, where +”, “−”, “−/+” or “+/−” values are as described for TABLES 1-14. Where the cell line includes a value in a parenthetical, the value indicates the seeding density at which the assay was performed

In another test the test system is CAKI. Briefly: in vitro antiproliferation assay, CAKI (renal cell carcinoma). As for the experimental part:
as §2, §3

The next test deals with HCT116. Put plainly: in vitro antiproliferation assay, HCT116 (colon). An outline of the steps: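 IC50 values from a standard in vitro antiproliferation assay in the named cell line. Where a parenthetical value follows the cell line, it gives the seeding density used for the assay.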
For a further test, the system named is SKMEL28. Briefly: in vitro antiproliferation assay, SKMEL28 (breast/p53mut). As to the method: as §2, §3
For the next test, the system named is SKMEL5. Put plainly: in vitro antiproliferation assay, SKMEL5. As to the method: as §2, §3
The subject of a further test is PC3. Briefly: in vitro antiproliferation assay, PC3 (prostate). As for the experimental part: as §2, §3
The subject of a further test is HUVEC. Put plainly: in vitro antiproliferation assay, HUVEC (primary endothelial). As to the method: as §2, §3
The subject of another test is U20S. Briefly: in vitro antiproliferation assay, U20S (bone). As for the experimental part:
as §2, §3

In a further test the test system is HELA. Briefly: in vitro antiproliferation assay, HELA (cervix/p53 wt). As for the experimental part: as §2, §3
The mark [1] stands for this setting: IC50 class against A549 (lung) tumor cells.
[2] abbreviates: IC50 class against H1299 (lung) tumor cells.
The mark [3] stands for this setting: HCT116 (colon), read-out: HCT116.
[4] abbreviates: Table 7, in vitro antiproliferation, A549 (lung) cells.
Setting [5] is: A549 (lung) cells, in vitro antiproliferation.
[6] abbreviates: H1299 (lung) cells, in vitro antiproliferation.
[7] abbreviates: A549 (lung) cells, antiproliferation.
Setting [8] is: H1299 (lung) cells, antiproliferation.

Structures are written as SMILES. Where two headings read alike, the source gives them in different places.

With `Fc1cnc(Nc2ccc(N3CCOCC3)cc2)nc1NC1CC1` [compound 101], the IC50 with A549 cells (setting [1]), in the test on H1299 cells (setting [2]), with ACHN, in the test with CAKI, in the test on HCT116 (setting [3]) and with SKMEL28 was at most 20 µM in each case. In the test on SKMEL5, this compound had an IC50 of at most 20 µM.
Take `O=C(COc1cccc(Nc2ncc(F)c(NC3CC3)n2)c1)NC1CC1` [compound 102]: the IC50 in the test on A549 cells (setting [1]), in the test on H1299 cells (setting [2]), in the test on ACHN, with CAKI, in the test with HCT116 (setting [3]) and with SKMEL28 was at most 20 µM in each case. Also, the IC50 in the test on SKMEL5 was at most 20 µM.
As to `O=C(COc1cccc(Nc2ncc(F)c(NC3CC3)n2)c1)NC1CCC1` [compound 103], the IC50 with A549 cells (setting [1]), in the test with H1299 cells (setting [2]), with ACHN, in the test with CAKI, in the test on HCT116 (setting [3]) and in the test with SKMEL28 was at most 20 µM throughout. The IC50 in the test on SKMEL5 is at most 20 µM.
Consider `CNC(=O)COc1cccc(Nc2ncc(F)c(NC3CC3)n2)c1` [compound 106], for which the IC50 in the test on A549 cells (setting [1]), with H1299 cells (setting [2]), in the test with ACHN, in the test with CAKI, in the test with HCT116 (setting [3]) and in the test on SKMEL28 was at most 20 µM in each case. The IC50 in the test on SKMEL5 is at most 20 µM.
Regarding `CNC(=O)COc1cccc(Nc2ncc(F)c(Nc3ccc4c(c3)OC(F)(F)C(F)(F)O4)n2)c1` [compound 503], the IC50 with A549 cells (Table 5, in vitro antiproliferation, A549 (lung) cells) is under 20 µM; with HCT116 (setting [3]) it was at most 20 µM; with PC3 it was over 20 µM.
`O=C(c1cc2cc(Nc3ncc(F)c(Nc4ccc5c(c4)OCCO5)n3)ccc2o1)N1CCCNCC1` [compound 644]: the IC50 with A549 cells (setting [4]) is at most 20 µM; in the test with HCT116 (setting [3]), at most 20 µM; in the test on HCT116 (Table 7, in vitro antiproliferation, colon cells, read-out: HTC116), at most 20 µM; in the test with PC3 it was over 20 µM.
In the case of `CNC(=O)c1cc2cccc(Nc3ncc(F)c(Nc4cc(OC)cc(OC)c4)n3)c2[nH]1` [compound 654], the IC50 is at most 20 µM in the test on A549 cells (setting [4]); at most 20 µM with H1299 cells (Table 7, in vitro antiproliferation, H1299 (lung) cells); at most 20 µM in the test with ACHN; at most 20 µM in the test on CAKI; at most 20 µM in the test with SKMEL28; at most 20 µM in the test with SKMEL5.
Turning to `CCOC(=O)COc1cccc(Nc2nc(Nc3cccc(O)c3)ncc2F)c1` [compound 763], the IC50 in the test with A549 cells (setting [5]) was over 20 µM; with H1299 cells (setting [6]), at most 20 µM; in the test with PC3, over 20 µM.
As for `CCOC(=O)COc1cccc(Nc2ncc(F)c(Nc3cc(OC)cc(OC)c3)n2)c1` [compound 766], the IC50 is over 20 µM with A549 cells (setting [5]), at most 20 µM in the test on H1299 cells (setting [6]) and over 20 µM in the test with PC3.
Consider `COc1cc(Nc2ncc(F)c(Nc3ccc(Cl)c(Cl)c3)n2)cc(OC)c1` [compound 835], for which the IC50 in the test with A549 cells (setting [5]), in the test on H1299 cells (setting [6]), with HCT116 (setting [3]), with HUVEC and with U20S was at most 20 µM throughout.
In the case of `Cc1cc(C)cc(Nc2ncc(F)c(Nc3ccc(Cl)c(Cl)c3)n2)c1` [compound 838], the IC50 with A549 cells (setting [5]) is at most 20 µM; with H1299 cells (setting [6]), over 20 µM; with HUVEC, over 20 µM.
For the compound `COc1cc(Nc2nc(Nc3cc(C)cc(C)c3)ncc2F)cc(OC)c1` [compound 846], the IC50 with A549 cells (setting [5]), with H1299 cells (setting [6]), in the test on ACHN, in the test on CAKI, in the test on HCT116 (setting [3]) and with HUVEC was at most 20 µM throughout. Further, the IC50 in the test with SKMEL28 and in the test on SKMEL5 was at most 20 µM each time.
For the compound `COc1cc(OC)cc(N(C)c2nc(Nc3cc(C)cc(C)c3)ncc2F)c1` [compound 851], the IC50 with A549 cells (setting [5]), in the test on H1299 cells (setting [6]), with HCT116 (setting [3]), in the test with HELA and in the test with U20S was at most 20 µM each time.
For the compound `COc1ccc(N(C)c2nc(Nc3cccc(-c4ncco4)c3)ncc2F)cc1OC` [compound 868], the IC50 in the test with A549 cells (setting [5]), in the test with H1299 cells (setting [6]), in the test on ACHN, in the test on CAKI, in the test with HCT116 (setting [3]) and in the test with SKMEL28 was at most 20 µM in each case. For the same compound, the IC50 with SKMEL5 and in the test with U20S was at most 20 µM throughout.
Take `COc1ccc(N(C)c2nc(Nc3ccc(-c4ncco4)cc3)ncc2F)cc1OC` [compound 869]: the IC50 in the test on A549 cells (setting [5]), in the test on H1299 cells (setting [6]), with ACHN, in the test on SKMEL28 and in the test on SKMEL5 was at most 20 µM in each case.
As for `COc1cc(Nc2nc(Nc3cccc(OCCO)c3)ncc2F)cc(OC)c1` [compound 940], the IC50 in the test with A549 cells (setting [7]), with H1299 cells (setting [8]), with HCT116 (setting [3]) and in the test on PC3 was at most 20 µM in each case.
`CCOC(=O)COc1cccc(Nc2ncc(F)c(Nc3cc(C)c(O)c(C)c3)n2)c1` [compound 947]: the IC50 with A549 cells (setting [7]) is over 20 µM; in the test on H1299 cells (setting [8]), at most 20 µM; with PC3, at most 20 µM.
Regarding `Cc1cc(Nc2nc(Nc3cccc(OCCN4CCOCC4)c3)ncc2F)cc(C)c1O` [compound 949], the IC50 with A549 cells (setting [7]), in the test with H1299 cells (setting [8]), in the test on HCT116 (setting [3]), in the test with SKMEL28 and with PC3 was at most 20 µM throughout.
Consider `CCOC(=O)COc1cccc(Nc2nc(Nc3cccc(C(C)(C)C)c3)ncc2F)c1` [compound 955], for which the IC50 with A549 cells (setting [7]), in the test on H1299 cells (setting [8]) and in the test on PC3 was over 20 µM each time.
For the compound `CCOC(=O)COc1cccc(Nc2ncc(F)c(Nc3cccc(C(C)(C)C)c3)n2)c1` [compound 958], the IC50 with A549 cells (setting [7]), in the test with H1299 cells (setting [8]) and in the test on PC3 was over 20 µM in each case.
On to `CC(C)(C)c1cccc(Nc2nc(Nc3cccc(OCC(=O)O)c3)ncc2F)c1` [compound 962], for which the IC50 with A549 cells (setting [7]), with H1299 cells (setting [8]) and in the test on PC3 was over 20 µM in each case.
For the compound `Cc1cc(Nc2nc(Nc3cccc(OCC(=O)O)c3)ncc2F)cc(C)c1O` [compound 979], the results for the IC50 in the test on A549 cells (setting [7]), in the test on H1299 cells (setting [8]) and in the test on PC3 were over 20 µM, at most 20 µM and over 20 µM, respectively.
Consider `Cc1cc(Nc2nc(Nc3cccc(OCCN4CCNCC4)c3)ncc2F)cc(Cl)c1O` [compound 984], for which the IC50 with A549 cells (setting [7]), with HCT116 (setting [3]) and with PC3 was at most 20 µM throughout.
For the compound `COc1c(C)cc(Nc2nc(Nc3cccc(OCC(=O)N4CCNCC4)c3)ncc2F)cc1C` [compound 986], the IC50 with A549 cells (setting [7]) and in the test on PC3 was over 20 µM each time.
With `COc1c(C)cc(Nc2nc(Nc3cccc(OCCN4CCNCC4)c3)ncc2F)cc1C` [compound 987], the IC50 was over 20 µM in the test on A549 cells (setting [7]) and at most 20 µM in the test on PC3.
As to `CNC(=O)COc1cccc(Nc2ncc(F)c(Nc3ccc(Cl)c(Cl)c3)n2)c1` [compound 1006], the IC50 in the test on A549 cells (setting [7]), in the test on H1299 cells (setting [8]) and in the test with HUVEC was at most 20 µM throughout.
In the case of `Cc1cc(C)cc(Nc2ncc(F)c(N(C)c3ccc(Cl)c(Cl)c3)n2)c1` [compound 1007], the IC50 with A549 cells (setting [7]), in the test on H1299 cells (setting [8]) and in the test with HUVEC was over 20 µM throughout.
For `COc1cc(Nc2ncc(F)c(N(C)c3ccc(Cl)c(Cl)c3)n2)cc(OC)c1` [compound 1009], the IC50 was over 20 µM in the test with A549 cells (setting [7]), over 20 µM with H1299 cells (setting [8]) and at most 20 µM in the test on HUVEC.
